Measured values as given in ChEMBL document CHEMBL3352469, “Pyrrolo- and pyridomorphinans: non-selective opioid antagonists and delta opioid agonists/mu opioid partial agonists” (Bioorg Med Chem, 2014).

Key:
Mu-type opioid receptor [1] = target: T1, Mu-type opioid receptor (Homo sapiens, UniProt P35372); assay: Displacement of [3H]DAMGO from human recombinant mu opioid receptor expressed in CHO cell membranes after 60 mins by scintillation counting method
[2] = target: T2, Kappa-type opioid receptor (Homo sapiens, UniProt P41145); assay: Displacement of [3H]U69593 from human recombinant kappa opioid receptor expressed in CHO cell membranes after 60 mins by scintillation counting method
[3] = target: T3, Delta-type opioid receptor (Homo sapiens, UniProt P41143); assay: Displacement of [3H]Cl-DPDPE from human recombinant delta opioid receptor expressed in CHO cell membranes after 60 mins by scintillation counting method
Nociceptin receptor [4] = target: T4, Nociceptin receptor (Homo sapiens, UniProt P41146); assay: Displacement of [3H]nociceptin from human recombinant NOP receptor expressed in CHO cell membranes after 60 mins by scintillation counting method
Mu-type opioid receptor [5] = target: T1, Mu-type opioid receptor; assay: Agonist activity at human recombinant mu opioid receptor expressed in CHO cell membranes at 10 uM after 60 mins by [35S]GTPgammaS binding assay relative to DAMGO; format: functional
[6] = target: T2, Kappa-type opioid receptor; assay: Agonist activity at human recombinant kappa opioid receptor expressed in CHO cell membranes at 10 uM after 60 mins by [35S]GTPgammaS binding assay relative to U69593; format: functional
Nociceptin receptor [7] = target: T4, Nociceptin receptor; assay: Agonist activity at human recombinant NOPR receptor expressed in CHO cell membranes at 10 uM after 60 mins by [35S]GTPgammaS binding assay relative to nociceptin; format: functional
Mu-type opioid receptor [8] = target: T1, Mu-type opioid receptor; assay: Antagonist activity at human recombinant mu opioid receptor expressed in CHO cell membranes assessed as inhibition of DAMGO-induced response after 60 mins by [35S]GTPgammaS binding assay; format: functional
[9] = target: T2, Kappa-type opioid receptor; assay: Antagonist activity at human recombinant kappa opioid receptor expressed in CHO cell membranes assessed as inhibition of U69593-induced response after 60 mins by [35S]GTPgammaS binding assay; format: functional
[10] = target: T3, Delta-type opioid receptor; assay: Antagonist activity at human recombinant delta opioid receptor expressed in CHO cell membranes assessed as inhibition of DPDPE-induced response after 60 mins by [35S]GTPgammaS binding assay; format: functional
Mu-type opioid receptor [11] = target: T1, Mu-type opioid receptor; assay: Agonist activity at human recombinant mu opioid receptor expressed in CHO cell membranes after 60 mins by [35S]GTPgammaS binding assay; format: functional
Mu-type opioid receptor [12] = target: T1, Mu-type opioid receptor; assay: Agonist activity at human recombinant mu opioid receptor expressed in CHO cell membranes after 60 mins by [35S]GTPgammaS binding assay relative to DAMGO; format: functional
[13] = target: T3, Delta-type opioid receptor; assay: Agonist activity at human recombinant delta opioid receptor expressed in CHO cell membranes after 60 mins by [35S]GTPgammaS binding assay; format: functional
[14] = target: T3, Delta-type opioid receptor; assay: Agonist activity at human recombinant delta opioid receptor expressed in CHO cell membranes after 60 mins by [35S]GTPgammaS binding assay relative to DPDPE; format: functional
[15] = target: T2, Kappa-type opioid receptor; assay: Agonist activity at human recombinant kappa opioid receptor expressed in CHO cell membranes after 60 mins by [35S]GTPgammaS binding assay; format: functional
[16] = target: T2, Kappa-type opioid receptor; assay: Agonist activity at human recombinant kappa opioid receptor expressed in CHO cell membranes after 60 mins by [35S]GTPgammaS binding assay relative to U69593; format: functional
Homo sapiens [17] = organism: Homo sapiens; assay: Selectivity for human recombinant delta opioid receptor over human mu opioid receptor
Homo sapiens [18] = organism: Homo sapiens; assay: Selectivity for human recombinant delta opioid receptor over human kappa opioid receptor
Homo sapiens [19] = organism: Homo sapiens; assay: Selectivity for human recombinant mu opioid receptor over human delta opioid receptor
Homo sapiens [20] = organism: Homo sapiens; assay: Selectivity for human recombinant mu opioid receptor over human kappa opioid receptor

T3 sequence (P41143 whole entry): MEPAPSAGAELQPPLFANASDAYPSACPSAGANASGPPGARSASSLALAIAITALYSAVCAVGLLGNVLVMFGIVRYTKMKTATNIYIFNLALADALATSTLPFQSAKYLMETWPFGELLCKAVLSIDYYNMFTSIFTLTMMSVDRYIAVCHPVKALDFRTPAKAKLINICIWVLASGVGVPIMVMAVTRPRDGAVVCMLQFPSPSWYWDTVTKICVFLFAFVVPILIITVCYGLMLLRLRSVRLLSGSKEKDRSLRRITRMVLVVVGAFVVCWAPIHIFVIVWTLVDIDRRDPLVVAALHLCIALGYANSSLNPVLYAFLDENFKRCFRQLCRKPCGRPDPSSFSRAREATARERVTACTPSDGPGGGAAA
T2 sequence (P41145 whole entry): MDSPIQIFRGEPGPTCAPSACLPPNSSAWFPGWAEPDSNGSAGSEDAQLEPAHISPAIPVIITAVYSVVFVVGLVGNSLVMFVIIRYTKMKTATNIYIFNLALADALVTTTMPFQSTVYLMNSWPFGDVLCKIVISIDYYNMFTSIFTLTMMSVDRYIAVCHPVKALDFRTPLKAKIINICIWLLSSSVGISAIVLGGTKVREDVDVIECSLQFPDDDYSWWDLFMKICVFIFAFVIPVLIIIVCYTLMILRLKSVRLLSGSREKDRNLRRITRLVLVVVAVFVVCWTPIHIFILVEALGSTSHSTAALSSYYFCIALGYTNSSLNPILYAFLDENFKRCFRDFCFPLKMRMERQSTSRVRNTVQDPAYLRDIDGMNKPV
T1 sequence (P35372 whole entry): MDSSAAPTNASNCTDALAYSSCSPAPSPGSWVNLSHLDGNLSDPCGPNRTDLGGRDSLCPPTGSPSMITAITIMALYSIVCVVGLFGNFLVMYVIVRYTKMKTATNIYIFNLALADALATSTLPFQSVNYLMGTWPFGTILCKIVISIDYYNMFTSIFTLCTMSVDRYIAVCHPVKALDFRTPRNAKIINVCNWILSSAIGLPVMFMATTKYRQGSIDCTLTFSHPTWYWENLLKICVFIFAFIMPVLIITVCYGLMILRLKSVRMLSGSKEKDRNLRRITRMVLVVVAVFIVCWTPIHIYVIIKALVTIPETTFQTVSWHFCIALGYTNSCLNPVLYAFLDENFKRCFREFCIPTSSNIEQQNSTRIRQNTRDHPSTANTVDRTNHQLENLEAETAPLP
T4 sequence (P41146 whole entry): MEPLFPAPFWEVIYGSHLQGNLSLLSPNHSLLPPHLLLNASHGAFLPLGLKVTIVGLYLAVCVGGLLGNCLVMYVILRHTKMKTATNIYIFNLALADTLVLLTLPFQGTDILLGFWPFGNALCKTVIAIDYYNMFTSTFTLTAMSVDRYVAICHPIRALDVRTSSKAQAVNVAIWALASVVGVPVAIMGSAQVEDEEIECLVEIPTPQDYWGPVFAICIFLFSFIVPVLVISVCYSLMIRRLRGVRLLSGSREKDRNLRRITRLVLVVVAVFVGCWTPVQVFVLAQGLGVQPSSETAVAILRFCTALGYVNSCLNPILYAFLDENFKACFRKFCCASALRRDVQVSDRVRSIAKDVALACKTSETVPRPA

SMILES | Ki (Mu-type opioid receptor [1]) [nM] | Ki [2] [nM] | Ki [3] [nM] | Smax (Mu-type opioid receptor [5]) [%] | Smax [6] [%] | Smax (Nociceptin receptor [7]) [%] | Ke (Mu-type opioid receptor [8]) [nM] | Ke [9] [nM] | EC50 (Mu-type opioid receptor [11]) [nM] | Activity (Mu-type opioid receptor [12]) [%] | EC50 [13] [nM] | Activity [14] [%] | other results
O=C1CCC2=C([C@@H]3Oc4c(O)ccc5c4[C@@]34CCN(CC3CC3)[C@H](C5)[C@]4(O)C2)N1Cc1ccccc1 | 0.18 | 0.15 | 0.36 | -1 | -20 | 12 | – | – | – | – | – | – | Ki (Nociceptin receptor [4]): 1300 nM
O=C1[C@H](CCO)CC2=C([C@@H]3Oc4c(O)ccc5c4[C@@]34CCN(CC3CC3)[C@H](C5)[C@]4(O)C2)N1Cc1ccccc1 | 0.43 | 1.29 | 0.7 | – | – | – | 0.35 | 0.73 | – | – | – | – | Ke [10]: 0.47 nM
C[C@H]1CC2=C([C@@H]3Oc4c(O)ccc5c4[C@@]34CCN(CC3CC3)[C@H](C5)[C@]4(O)C2)N(Cc2ccccc2)C1=O | 0.42 | 0.71 | 1.58 | – | – | – | 0.6 | 2.03 | – | – | – | – | Ke [10]: 0.57 nM
CN1C(=O)CCC2=C1[C@@H]1Oc3c(O)ccc4c3[C@@]13CCN(C)[C@H](C4)[C@]3(O)C2 | 1.23 | 20.4 | 9.39 | – | – | – | – | – | 80 | 40 | 25.5 | 67 | –
CCOC(=O)Cc1c2c(n(Cc3ccccc3)c1O)[C@@H]1Oc3c(O)ccc4c3[C@@]13CCN(C)[C@H](C4)[C@]3(O)C2 | 13.2 | 159 | 82.1 | – | – | – | – | – | 70.5 | 86 | 42.5 | 74 | EC50 [15]: 434 nM; Activity [16]: 23%
O=C1CCC2=C([C@@H]3Oc4c(O)ccc5c4[C@@]34CCN(CC3CC3)[C@H](C5)[C@]4(O)C2)N1CC1CCCCC1 | 0.11 | 0.33 | 0.28 | -1 | -5 | 5 | – | – | – | – | – | – | Ki (Nociceptin receptor [4]): 880 nM
Cc1[nH]c2c(c1Cc1ccccc1)C[C@@]1(O)[C@H]3Cc4ccc(O)c5c4[C@@]1(CCN3CC1CC1)[C@H]2O5 | – | – | – | – | – | – | – | – | – | – | – | – | Selectivity ratio (Homo sapiens [17]): 40; Selectivity ratio (Homo sapiens [18]): 40
CN1CC[C@]23c4c5ccc(O)c4O[C@H]2C2=C(C[C@H](CCO)C(=O)N2Cc2ccccc2)C[C@@]3(O)[C@H]1C5 | 3 | 15.6 | 2.85 | – | – | – | – | 16.8 | 94.9 | 36 | 10.6 | 68 | –
CN1CC[C@]23c4c5ccc(O)c4O[C@H]2C2=C(CCC(=O)N2Cc2ccccc2)C[C@@]3(O)[C@H]1C5 | 0.29 | 1.98 | 0.92 | – | – | – | – | 21.3 | 4.97 | 52 | 3 | – | Ratio Ki (Homo sapiens [19]): 3; Ratio Ki (Homo sapiens [20]): 3
CN1C(=O)[C@@H](CCO)CC2=C1[C@@H]1Oc3c(O)ccc4c3[C@@]13CCN(C)[C@H](C4)[C@]3(O)C2 | 12.8 | 182 | 9.25 | – | – | – | – | 2140 | 709 | 37 | 30.6 | 80 | –
CN1C(=O)[C@H](CCO)CC2=C1[C@@H]1Oc3c(O)ccc4c3[C@@]13CCN(C)[C@H](C4)[C@]3(O)C2 | 2.37 | 48.7 | 3.59 | – | – | – | – | 321 | 163 | 36 | 11.8 | 66 | –
O=C1[C@@H](CCO)CC2=C([C@@H]3Oc4c(O)ccc5c4[C@@]34CCN(CC3CC3)[C@H](C5)[C@]4(O)C2)N1Cc1ccccc1 | 1.54 | 2.76 | 2.38 | – | – | – | 1.62 | 2.22 | – | – | – | – | Ke [10]: 0.93 nM
O=C1CCC2=C([C@@H]3Oc4c(O)ccc5c4[C@@]34CCN(CC3CC3)[C@H](C5)[C@]4(O)C2)N1CCc1ccccc1 | – | – | – | 1 | -10 | 5 | – | – | – | – | – | – | Ki (Nociceptin receptor [4]): 1500 nM
O=C1CCC2=C([C@@H]3Oc4c(O)ccc5c4[C@@]34CCN(CC3CC3)[C@H](C5)[C@]4(O)C2)N1Cc1cccc(Cl)c1 | – | – | – | -1 | -11 | 7 | – | – | – | – | – | – | –
CN1CC[C@]23c4c5ccc(O)c4O[C@H]2C2=C(C[C@@H](CCO)C(=O)N2Cc2ccccc2)C[C@@]3(O)[C@H]1C5 | 2.03 | 4.68 | 1.02 | – | – | – | 32.9 | 29.3 | – | – | 2.37 | 73 | –
C=CCN1CC[C@]23c4c5ccc(O)c4O[C@H]2C2=C(CCC(=O)N2CCc2ccccc2)C[C@@]3(O)[C@H]1C5 | – | – | – | -2 | -15 | 4 | – | – | – | – | – | – | –
C[C@@H]1CC2=C([C@@H]3Oc4c(O)ccc5c4[C@@]34CCN(CC3CC3)[C@H](C5)[C@]4(O)C2)N(Cc2ccccc2)C1=O | 0.56 | 0.95 | 0.85 | – | – | – | 0.5 | 0.23 | – | – | – | – | Ke [10]: 0.23 nM
CCOC(=O)Cc1c2c(n(Cc3ccccc3)c1O)[C@@H]1Oc3c(O)ccc4c3[C@@]13CCN(CC1CC1)[C@H](C4)[C@]3(O)C2 | 8.65 | 4.79 | 10 | – | – | – | 6.61 | – | – | – | – | – | Ke [10]: 6.79 nM
O=C1CCC2=C([C@@H]3Oc4c(O)ccc5c4[C@@]34CCN(CC3CC3)[C@H](C5)[C@]4(O)C2)N1Cc1cccc(F)c1 | – | – | – | -1 | -9 | 7 | – | – | – | – | – | – | –
